Data: patent US20250146022A1, “STABILISING THE HUMAN SPINDLE BY KIFC1/HSET” (MAX-PLANCK-GESELLSCHAFT ZUR FOERDERUNG DER WISSENSCHAFTEN …, priority 2021, published 2025)

Tested on: human oocytes
Assay: Live imaging of spindle assembly and chromosome segregation in human oocytes microinjected with KIFC1/HSET (mClover3-HSET)
Format: cell-based
Method: As shown in various Figures herein and specifically referred in Example 2, the bipolar meiotic spindle is assessed or detected by fluorescence microscopy or polarized light microscopy. In practice, the oocyte is not is typically not assessed by fluorescence microscopy, when the oocyte is used for in vitro fertilization at a later stage as this would require sacrificing the oocytes for analysis. The change in probability represents a characteristic of human oocytes when KIFC1/HSET is introduced into the human oocyte. […] Similarly, it is also expected that KIFC1/HSET stabilizes the mitotic spindle in human zygotes. The skilled person is aware of how to determine the duration of spindle pole instability and is provided with further guidance in Example 2 herein. Briefly, the duration of spindle pole instability refers to the duration of excessive spindle pole remodeling after early spindle bipolarization. In the case of human oocytes, the remodeling is largely the widening or fragmentation of spindle poles, which results in apolar or multipolar spindle. The start and end points are determined from the videos based on the first and last time points in which the spindle was not bipolar.
Anaphase onset refers to the time point before chromosome separation was first observed, as defined in the inventors previous study (2). […] Thus, there was a difference of 30.6% relative to the starting percentage of 44%. In other words, the human oocytes in FIG. 8D into which KIFC1/HSET has been introduced have a 1.7 fold (75%/44%) higher probability of aligned chromosomes at anaphase onset in comparison to an oocyte without introduced KIFC1/HSET.
In general, lagging chromosomes during anaphase are known in the art and are a consequence of chromosomes or chromatids not properly separating from each other. […] Lagging chromosomes are therefore a common cause of aneuploidy. […] Specifically, 33.3% of oocytes without introduced KIFC1/HSET had no lagging: chromosomes, while 62.5% of oocytes with introduced KIFC1/HSET had no lagging chromosomes. Thus, there was a difference of 29.5% based on the starting percentage of 33%. In other words, the human oocytes in FIG. 8E into which KIFC1/HSET has been introduced have a 1.9 fold (62.5%/33.3%) higher probability of aligned chromosomes at anaphase onset in comparison to an oocyte without introduced KIFC1/HSET.
To confirm that the lack of KIFC1/HSET is a major contributor to spindle instability in human oocytes, the inventors introduced KIFC1/HSET into human oocytes in FIG. 8. To visualize the dynamics of microtubules and chromosomes using live cell imaging, human oocytes were stained with 5′-SiR-tubulin and SPY555-DNA, respectively. […] The inventors also quantified the frequency of misaligned chromosomes at anaphase onset (FIG. 8D) and lagging chromosomes (FIG. 8E) in human oocytes non-injected and injected with KIFC1/HSET. […] Together, the inventors infer that the introduction of KIFC1/HSET stabilized the meiotic spindle and reduced the risk of aneuploidy in human oocytes.
The use of unfertilized human oocytes in this study was approved by the UK's National Research Ethics Service under the REC reference 11/EE/0346 (IRAS Project ID 84952) and the Ärztekammer Niedersachsen (Ethics Committee of Lower Saxony) under the reference 15/2016. Oocytes were collected from patients who underwent ovarian stimulation for intracytoplasmic sperm injection (ICSI) as part of their assisted reproduction treatment at the Bourn Hall Clinic or Kinderwunschzentrum Göttingen or Fertility Center Berlin. Only oocytes that were immature at the time of ICSI and thus unsuitable for the procedure were used in this study. All patients gave informed consent for their surplus oocyte(s) to be used in this study. Oocytes were cultured as previously described (1). Briefly, within 3-5 h after retrieval from ovaries, oocytes were transferred into G-MOPS (Vitrolife) supplemented with 10% FBS under paraffin oil at 37° C. […]

Question: For “KIFC1/HSET: Recombinant mClover3-tagged human kinesin-14 KIFC1/HSET protein (SEQ ID NO: 1), expressed in 293 cells, microinjected into human oocytes and zygotes”, which “fold higher probability of aligned chromosomes at anaphase onset vs oocyte without introduced KIFC1/HSET (FIG. 8E, lagging chromosomes)” value (62.5%/33.3%, FIG. 8E) is on record?
Answer: Its value is 1.9 fold.

Question: What about the “fold higher probability of aligned chromosomes at anaphase onset vs oocyte without introduced KIFC1/HSET” value (75%/44%, FIG. 8D) of the same substance?
Answer: The value was 1.7 fold.

Question: And the “difference in oocytes with no lagging chromosomes” value (based on the starting percentage of 33%)?
Answer: The value was 29.5%.

Question: And the “time of early spindle bipolarization after onset of microtubule nucleation” value (injected human oocytes, non-injected 2.4 h, p=0.7197, FIG. 8B)?
Answer: Its value is 2.65 h.

Question: And the “duration of spindle pole instability” value (injected human oocytes, non-injected 10.3 h, p<0.0001, FIG. 8C)?
Answer: Its value is 3.4 h.

Question: What about the “proportion of human oocytes with no lagging chromosome” value (oocytes with introduced KIFC1/HSET, without 33.3%, FIG. 8E) of the same substance?
Answer: Its value is 62.5%.

Question: And the “proportion of human oocytes with aligned chromosomes at anaphase onset” value (oocytes with introduced KIFC1/HSET, without 44.4%, FIG. 8D)?
Answer: The value was 75%.

Question: And the “difference in oocytes with aligned chromosomes at anaphase onset” value (relative to the starting percentage of 44%)?
Answer: The value was 30.6%.
